Patent publication US11014934B2, “Antiseptic drug” (AO “TATKHIMFARMPREPARATY”, priority 2017, dated 2021)
Read-outs that look alike come from different tables or passages of the source.

How the values were obtained:
Assay in all cases: MIC, serial dilutions in Müller-Hinton broth
Assay type in all cases: cell-based
Acinetobacter spp. 3 = system: Acinetobacter spp. 3
Procedure, shortened: (§1)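 Broth microdilution in Müller-Hinton broth following MUK 4.2.1890-04, with two-fold compound dilutions at final 1-128 ug/ml. The inoculum was set to 0.5 McFarland and diluted to 10^7 CFU/ml before addition, then plates were incubated at 37° C. for 24 hours. MIC was the lowest concentration without visible growth, taking the highest of three independent runs.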

E. faecium 24 = system: E. faecium 24
Procedure, shortened: as §1

E. faecium 3062 = system: E. faecium 3062
Procedure, shortened: as §1

E. faecium 30 = system: E. faecium 30
Procedure, shortened: as §1

Kl. pneumoniae 1812 PR = system: Kl. pneumoniae 1812 PR
Procedure, shortened: as §1

Kl. pneumoniae 645 PR = system: Kl. pneumoniae 645 PR
Procedure, shortened: as §1

Proteus spp. 17 = system: Proteus spp. 17
Procedure, shortened: as §1

S. aureus 1053a = system: S. aureus 1053a
Procedure, shortened: as §1

S. aureus 1130 MRSA = system: S. aureus 1130 MRSA
Procedure, shortened: as §1

S. aureus 1145 MRSA = system: S. aureus 1145 MRSA
Procedure, shortened: as §1

S. aureus 1167 MRSA = system: S. aureus 1167 MRSA
Procedure, shortened: as §1

S. aureus 19 = system: S. aureus 19
Procedure, shortened: as §1

S. aureus 2020 MRSA = system: S. aureus 2020 MRSA
Procedure, shortened: as §1

S. aureus 981 MRSA = system: S. aureus 981 MRSA
Procedure, shortened: as §1

S. haemoliticus 837 MRSA = system: S. haemoliticus 837 MRSA
Procedure, shortened: as §1

S. marcescens 1966 PR = system: S. marcescens 1966 PR
Procedure, shortened: as §1

S. marcescens = system: S. marcescens
Procedure, shortened: as §1

Stenotrophomonas spp. 9 = system: Stenotrophomonas spp. 9
Procedure, shortened: as §1

Q: What does the source list for `CCCCCCCCCCCCCC(=O)NCCC[N+](C)(C)Cc1ccccc1.O.[Cl-]` [Miramistin, benzyldimethyl [3-(myristoylamino)propyl]-ammonium chloride monohydrate]?
A: MIC (Acinetobacter spp. 3; Acinetobacter, SPP.3): 64 µg/mL; MIC (E. faecium 24; Enterococcus faecium, 24): 16 µg/mL; MIC (E. faecium 3062; Enterococcus faecium, 3062): 0.5 µg/mL; MIC (E. faecium 30; Enterococcus faecium, 30): < 0.5 µg/mL; MIC (Kl. pneumoniae 1812 PR; Klebsiella pneumoniae, 1812PR): 64 µg/mL; MIC (Kl. pneumoniae 645 PR; Klebsiella pneumoniae, 645PR): 64 µg/mL; MIC (Proteus spp. 17): > 64 µg/mL; MIC (S. aureus 1053a; Staphylococcus aureus, 1053A): 4 to 8 µg/mL; MIC (S. aureus 1130 MRSA; Staphylococcus aureus, MRSA): 4 µg/mL; MIC (S. aureus 1145 MRSA; Staphylococcus aureus, MRSA): 8 µg/mL; MIC (S. aureus 1167 MRSA; Staphylococcus aureus, MRSA): 4 µg/mL; MIC (S. aureus 19; Staphylococcus aureus, 19): 16 µg/mL; MIC (S. aureus 2020 MRSA; Staphylococcus aureus, MRSA): 8 µg/mL; MIC (S. aureus 981 MRSA; Staphylococcus aureus, MRSA): 4 µg/mL; MIC (S. haemoliticus 837 MRSA): 64 µg/mL; MIC (S. marcescens 1966 PR; Serratia marcescens, 1966PR): 64 µg/mL; MIC (S. marcescens; Serratia marcescens): 32 µg/mL; MIC (Stenotrophomonas spp. 9; Stenotrophomonas, SPP.9): 64 µg/mL

Q: Which MIC (Acinetobacter spp. 3; Acinetobacter spp. 3, inoculum 10^7 CFU/ml) does the source give for “alkyldimethyl(phenylmethyl) ammonium chloride [Benzalconium chloride]” here?
A: The MIC was 4 µg/mL.

Q: What about the MIC (E. faecium 24; E. faecium 24, inoculum 10^7 CFU/ml) of the same compound?
A: The MIC was under 0.5 µg/mL.

Q: And the MIC (E. faecium 3062; E. faecium 3062, inoculum 10^7 CFU/ml)?
A: Its MIC is 1 µg/mL.

Q: What about the MIC (E. faecium 30; E. faecium 30, inoculum 10^7 CFU/ml) of the same compound?
A: Its MIC is under 0.5 µg/mL.

Q: And the MIC (Kl. pneumoniae 1812 PR; Kl. pneumoniae 1812 PR, inoculum 10^7 CFU/ml)?
A: The MIC was 64 µg/mL.

Q: And the MIC (Kl. pneumoniae 645 PR; Kl. pneumoniae 645 PR, inoculum 10^7 CFU/ml)?
A: The MIC was 16 µg/mL.

Q: What about the MIC (Proteus spp. 17; Proteus spp. 17, inoculum 10^7 CFU/ml) of the same compound?
A: The MIC was 16 µg/mL.

Q: And the MIC (S. aureus 1053a; S. aureus 1053a, inoculum 10^7 CFU/ml)?
A: Its MIC is 1 µg/mL.

Q: What about the MIC (S. aureus 1130 MRSA; S. aureus 1130 MRSA, inoculum 10^7 CFU/ml) of the same compound?
A: Its MIC is 2 µg/mL.

Q: What about the MIC (S. aureus 1145 MRSA; S. aureus 1145 MRSA, inoculum 10^7 CFU/ml) of the same compound?
A: The MIC was 2 µg/mL.

Q: What about the MIC (S. aureus 1167 MRSA; S. aureus 1167 MRSA, inoculum 10^7 CFU/ml) of the same compound?
A: Its MIC is 2 µg/mL.

Q: And the MIC (S. aureus 19; S. aureus 19, inoculum 10^7 CFU/ml)?
A: The MIC was under 0.5 µg/mL.

Q: And the MIC (S. aureus 2020 MRSA; S. aureus 2020 MRSA, inoculum 10^7 CFU/ml)?
A: The MIC was 4 µg/mL.

Q: What about the MIC (S. aureus 981 MRSA; S. aureus 981 MRSA, inoculum 10^7 CFU/ml) of the same compound?
A: Its MIC is 4 µg/mL.

Q: And the MIC (S. haemoliticus 837 MRSA; S. haemoliticus 837 MRSA, inoculum 10^7 CFU/ml)?
A: The MIC was 16 µg/mL.

Q: And the MIC (S. marcescens 1966 PR; S. marcescens 1966 PR, inoculum 10^7 CFU/ml)?
A: The MIC was 64 µg/mL.

Q: What about the MIC (S. marcescens; S. marcescens, inoculum 10^7 CFU/ml) of the same compound?
A: Its MIC is 2 µg/mL.

Q: What about the MIC (Stenotrophomonas spp. 9; Stenotrophomonas spp. 9, inoculum 10^7 CFU/ml) of the same compound?
A: The MIC was 4 µg/mL.

Q: For `CCCCCCCCCCCC[N+](C)(C)Cc1cnc(C[N+](C)(C)CCCCCCCCCCCC)c2c1COC(CC)O2` (stereo not drawn) [Compound I, 5,8-(Bis(methylene (N, N-dimethyl-N-dodecylammonium))-2-ethyl-4H-[1,3]dioxino [4,5-c]pyridiniumdichloride], which MIC (Acinetobacter spp. 3; Acinetobacter spp. 3, inoculum 10^7 CFU/ml, read-out: MIC) is on record?
A: Its MIC is 8 µg/mL.

Q: And the MIC (E. faecium 24; Enterococcus faecium, E. faecium 24, inoculum 10^7 CFU/ml, read-out: MIC)?
A: Its MIC is 0.03 µg/mL.

Q: And the MIC (E. faecium 3062; Enterococcus faecium, E. faecium 3062, inoculum 10^7 CFU/ml, read-out: MIC)?
A: The MIC was 0.5 µg/mL.

Q: And the MIC (E. faecium 30; Enterococcus faecium, E. faecium 30, inoculum 10^7 CFU/ml, read-out: MIC)?
A: Its MIC is 0.03 µg/mL.

Q: And the MIC (Kl. pneumoniae 1812 PR; Klebsiella pneumoniae, Kl. pneumoniae 1812 PR, inoculum 10^7 CFU/ml, read-out: MIC)?
A: Its MIC is 64 µg/mL.

Q: What about the MIC (Kl. pneumoniae 645 PR; Klebsiella pneumoniae, Kl. pneumoniae 645 PR, inoculum 10^7 CFU/ml, read-out: MIC) of the same compound?
A: Its MIC is 32 µg/mL.

Q: What about the MIC (Proteus spp. 17; Proteus spp. 17, inoculum 10^7 CFU/ml, read-out: MIC) of the same compound?
A: Its MIC is 64 µg/mL.

Q: What about the MIC (S. aureus 1053a; Staphylococcus aureus, S. aureus 1053a, inoculum 10^7 CFU/ml, read-out: MIC) of the same compound?
A: The MIC was 2 µg/mL.

Q: What about the MIC (S. aureus 1130 MRSA; Staphylococcus aureus, S. aureus 1130 MRSA, inoculum 10^7 CFU/ml, read-out: MIC) of the same compound?
A: Its MIC is 2 µg/mL.

Q: What about the MIC (S. aureus 1145 MRSA; Staphylococcus aureus, S. aureus 1145 MRSA, inoculum 10^7 CFU/ml, read-out: MIC) of the same compound?
A: The MIC was 2 µg/mL.

Q: What about the MIC (S. aureus 1167 MRSA; Staphylococcus aureus, S. aureus 1167 MRSA, inoculum 10^7 CFU/ml, read-out: MIC) of the same compound?
A: Its MIC is 4 µg/mL.

Q: What about the MIC (S. aureus 19; Staphylococcus aureus, S. aureus 19, inoculum 10^7 CFU/ml, read-out: MIC) of the same compound?
A: Its MIC is 2 µg/mL.

Q: And the MIC (S. aureus 2020 MRSA; Staphylococcus aureus, S. aureus 2020 MRSA, inoculum 10^7 CFU/ml, read-out: MIC)?
A: Its MIC is 4 µg/mL.

Q: And the MIC (S. aureus 981 MRSA; Staphylococcus aureus, S. aureus 981 MRSA, inoculum 10^7 CFU/ml, read-out: MIC)?
A: The MIC was 4 µg/mL.

Q: And the MIC (S. haemoliticus 837 MRSA; S. haemoliticus 837 MRSA, inoculum 10^7 CFU/ml, read-out: MIC)?
A: The MIC was 8 µg/mL.

Q: What about the MIC (S. marcescens 1966 PR; Serratia marcescens, S. marcescens 1966 PR, inoculum 10^7 CFU/ml, read-out: MIC) of the same compound?
A: Its MIC is 32 µg/mL.

Q: And the MIC (S. marcescens; Serratia marcescens, S. marcescens, inoculum 10^7 CFU/ml, read-out: MIC)?
A: The MIC was 4 µg/mL.

Q: What about the MIC (Stenotrophomonas spp. 9; Stenotrophomonas spp. 9, inoculum 10^7 CFU/ml, read-out: MIC) of the same compound?
A: Its MIC is 8 µg/mL.
